# Ends that are not written are not given here.
# Tests used:
# [1] = system: Enterococcus faecium (n = 104); assay: microbe, parasite or virus in culture; conditions: for % R (isolates resistant): CLSI breakpoints
# Method: Comparator antibiotics were supplied by Micromyx, and stock solutions were prepared on the first day of testing using solvents recommended by CLSI (1). Stock solutions of all compounds were made at 40× the final testing concentration and stored at −80° C. prior to testing. Information regarding compound source, catalog and lot number, testing concentrations and drug diluent for the comparators and test agent are detailed below in Table 3.
# The test organisms evaluated in this study consisted of clinical isolates from the Micromyx Repository and reference isolates from the American Type Culture Collection (ATCC; Manassas, Va.). The clinical isolates were obtained from USA hospitals. Upon initial receipt at Micromyx, the organisms were sub-cultured onto an appropriate agar medium. Following incubation, colonies were harvested from these plates and cell suspensions prepared and frozen at −80° C. with a cryoprotectant. Prior to testing, the isolates were streaked from frozen vials onto Trypticase Soy Agar with 5% sheep blood (Becton Dickenson [BD]; Sparks, MD; Lot Nos. 7173618, 7166759, 7208688, 72144895, 7228505 and Remel Lenexa, Kans. Lot No. 212574). Plates were incubated at 35° C. overnight.
# Mueller Hinton II broth (MHB II; BD; Lot Nos. 6258541 and 7143896) was used for MIC testing of aerobic organisms.
# (§1) MIC values were determined using a broth microdilution procedure described by CLSI (1, 3). Automated liquid handlers (Multidrop 384, Labsystems, Helsinki, Finland; Biomek 2000 and Biomek FX, Beckman Coulter, Fullerton Calif.) were used to conduct serial dilutions and liquid transfers.
# To prepare the drug mother plates, which would provide the serial drug dilutions for the replicate daughter plates, the wells of columns 2-12 of standard 96-well microdilution plates (Costar 3795) were filled with 150 µl of the designated diluent for each row of drug. The test articles and comparator compounds ([…] at 40× the highest concentration to be tested) were dispensed into the appropriate wells in column 1. The Biomek 2000 was then used to make 2-fold serial dilutions in the mother plates from column 1 through column 11. The wells of Column 12 contained no drug and served as the organism growth control wells for the assay.
# (§2) The daughter plates were loaded with 185 g L per well of MHB II using the Multidrop 384. The daughter plates were completed on the Biomek FX instrument which transferred 5 µL of drug solution from each well of a mother plate to the corresponding well of each daughter plate in a single step. A standardized inoculum of each test organism was prepared per CLSI methods (1). The inoculum for each organism was dispensed into sterile reservoirs divided by length (Beckman Coulter), and the Biomek 2000 was used to inoculate the plates. Daughter plates were placed on the Biomek 2000 work surface in reverse orientation so that inoculation took place from low to high drug concentration.
# (§3) Plates were stacked 3-4 high, covered with a lid on the top plate, placed in plastic bags, and incubated at 35° C. for 16 to 20 hrs. Following incubation, the microplates were removed from the incubator and viewed from the bottom using a plate viewer. […] The MIC was read and recorded as the lowest concentration of drug that inhibited visible growth of the organism.
# Clinical breakpoints to determine percent resistance within a given organism group were obtained from CLSI (3), with the exception of colistin for K. pneumoniae, Enterobacter spp., and E. coli, which are only available from EUCAST.
# [2] = system: Staphylococcus aureus (n = 104); assay: microbe, parasite or virus in culture; format: cell-based; conditions: for % R (isolates resistant) / MIC range: Staphylococcus aureus (n = 104); for % R (isolates resistant): CLSI breakpoints; for MIC range: all methicillin-resistant
# Method: The clinical isolates were obtained from USA hospitals. […] Plates were incubated at 35° C. overnight.
# [3] = system: Acinetobacter baumannii ATCC 19606 (non-MDR); format: cell-based; conditions: ATCC 19606
# Method: (§4) Each peptide was formulated in PBS buffer prior to testing. Peptides of SEQ ID NO:5 and SEQ ID NO:8 were brought up in 100% DMSO with 0.002% polysorbate-80 at 1.28 mg/mL (40× the highest final test concentration of 32 mcg/mL). Final test concentration of DMSO was 2.5% in the assay at the first dilution for those two compounds.
# (§5) Mueller Hinton II broth (MHB II; BD; Lot Nos. 6258541 and 7143896) was used for MIC testing of aerobic organisms. 0.002% polysorbate 80 (P80) was added to the test medium.
# as §1
# (§6) To prepare the drug mother plates, which would provide the serial peptide dilutions for the replicate daughter plates, the wells of columns 2-12 of standard 96-well microdilution plates (Costar 3795) were filled with 150 µl of the designated diluent for each row of peptide.
# (§7) The test articles and comparator compounds ([…] at 40× the highest concentration to be tested) were dispensed into the appropriate wells in column 1. The Biomek 2000 was then used to make 2-fold serial dilutions in the mother plates from column 1 through column 11. The wells of Column 12 contained no drug and served as the organism growth control wells for the assay.
# as §2, with “185 μL” for “185 g L”, “5 uL” for “5 µL”, “of peptide” for “of drug”, “CLSI methods.” for “CLSI methods (1).”
# as §3, with “peptide” for “drug”
# [4] = system: Staphylococcus aureus ATCC 43300 (MRSA); format: cell-based; conditions: ATCC 43300
# Method: as §4, §5, §1, §6, §7
# as §2, with “185 μL” for “185 g L”, “5 uL” for “5 µL”, “of peptide” for “of drug”, “CLSI methods.” for “CLSI methods (1).”
# as §3, with “peptide” for “drug”
# [5] = system: Enterococcus faecalis ATCC 700802 (V583 VRE); format: cell-based; conditions: ATCC 700802
# Method: as §4, §5, §1, §6, §7
# as §2, with “185 μL” for “185 g L”, “5 uL” for “5 µL”, “of peptide” for “of drug”, “CLSI methods.” for “CLSI methods (1).”
# as §3, with “peptide” for “drug”
# [6] = system: Pseudomonas aeruginosa ATCC BAA-2109 (MDR); format: cell-based; conditions: ATCC BAA-2109
# Method: as §4, §5, §1, §6, §7
# as §2, with “185 μL” for “185 g L”, “5 uL” for “5 µL”, “of peptide” for “of drug”, “CLSI methods.” for “CLSI methods (1).”
# as §3, with “peptide” for “drug”
# [7] = system: Escherichia coli ATCC BAA-2471 (NDM-1); format: cell-based; conditions: ATCC BAA-2471
# Method: as §4, §5, §1, §6, §7
# as §2, with “185 μL” for “185 g L”, “5 uL” for “5 µL”, “of peptide” for “of drug”, “CLSI methods.” for “CLSI methods (1).”
# as §3, with “peptide” for “drug”
# [8] = system: Pseudomonas aeruginosa ATCC 27853 (non-MDR; QC); format: cell-based; conditions: ATCC 27853
# Method: as §4, §5, §1, §6, §7
# as §2, with “185 μL” for “185 g L”, “5 uL” for “5 µL”, “of peptide” for “of drug”, “CLSI methods.” for “CLSI methods (1).”
# as §3, with “peptide” for “drug”
# [9] = system: Staphylococcus aureus ATCC 29213 (MSSA; QC); format: cell-based; conditions: ATCC 29213
# Method: as §4, §5, §1, §6, §7
# as §2, with “185 μL” for “185 g L”, “5 uL” for “5 µL”, “of peptide” for “of drug”, “CLSI methods.” for “CLSI methods (1).”
# as §3, with “peptide” for “drug”
# [10] = system: Escherichia coli ATCC 25922 (QC); format: cell-based; conditions: ATCC 25922
# Method: as §4, §5, §1, §6, §7
# as §2, with “185 μL” for “185 g L”, “5 uL” for “5 µL”, “of peptide” for “of drug”, “CLSI methods.” for “CLSI methods (1).”
# as §3, with “peptide” for “drug”
# [11] = system: Streptococcus pneumoniae ATCC 49619 (QC); format: cell-based; conditions: ATCC 49619
# Method: as §4, §5, §1, §6, §7
# as §2, with “185 μL” for “185 g L”, “5 uL” for “5 µL”, “of peptide” for “of drug”, “CLSI methods.” for “CLSI methods (1).”
# as §3, with “peptide” for “drug”
# [12] = system: Streptococcus pyogenes ATCC 49399; format: cell-based; conditions: ATCC 49399
# Method: as §4, §5, §1, §6, §7
# as §2, with “185 μL” for “185 g L”, “5 uL” for “5 µL”, “of peptide” for “of drug”, “CLSI methods.” for “CLSI methods (1).”
# as §3, with “peptide” for “drug”
# [13] = system: Enterococcus faecalis ATCC 29212 (VSE; QC); format: cell-based; conditions: ATCC 29212
# Method: as §4, §5, §1, §6, §7
# as §2, with “185 μL” for “185 g L”, “5 uL” for “5 µL”, “of peptide” for “of drug”, “CLSI methods.” for “CLSI methods (1).”
# as §3, with “peptide” for “drug”
# [14] = system: Klebsiella pneumoniae ATCC BAA-1705 (KPC); format: cell-based; conditions: ATCC BAA-1705
# Method: as §4, §5, §1, §6, §7
# as §2, with “185 μL” for “185 g L”, “5 uL” for “5 µL”, “of peptide” for “of drug”, “CLSI methods.” for “CLSI methods (1).”
# as §3, with “peptide” for “drug”
# [15] = system: Enterococcus faecium ATCC 51559 (VRE); format: cell-based; conditions: ATCC 51559
# Method: as §4, §5, §1, §6, §7
# as §2, with “185 μL” for “185 g L”, “5 uL” for “5 µL”, “of peptide” for “of drug”, “CLSI methods.” for “CLSI methods (1).”
# as §3, with “peptide” for “drug”
# [16] = system: Escherichia coli ATCC 35218 (ESBL); format: cell-based; conditions: ATCC 35218
# Method: as §4, §5, §1, §6, §7
# as §2, with “185 μL” for “185 g L”, “5 uL” for “5 µL”, “of peptide” for “of drug”, “CLSI methods.” for “CLSI methods (1).”
# as §3, with “peptide” for “drug”
# [17] = system: Staphylococcus aureus NRS382 (USA100; HA-MRSA); format: cell-based; conditions: USA100
# Method: as §4, §5, §1, §6, §7
# as §2, with “185 μL” for “185 g L”, “5 uL” for “5 µL”, “of peptide” for “of drug”, “CLSI methods.” for “CLSI methods (1).”
# as §3, with “peptide” for “drug”
# [18] = system: Acinetobacter baumannii ATCC BAA-1797 (MDR); assay: microbe, parasite or virus in culture; format: cell-based; conditions: ATCC BAA-1797
# Method: as §4, §5, §1, §6, §7
# as §2, with “185 μL” for “185 g L”, “5 uL” for “5 µL”, “of peptide” for “of drug”, “CLSI methods.” for “CLSI methods (1).”
# as §3, with “peptide” for “drug”
MIC [3] [µg/mL],MIC [4] [µg/mL],MIC [5] [µg/mL],MIC [6] [µg/mL],MIC [7] [µg/mL],MIC [8] [µg/mL],MIC [9] [µg/mL],MIC [10] [µg/mL],MIC [11] [µg/mL],MIC [12] [µg/mL],MIC [13] [µg/mL],MIC [14] [µg/mL],MIC [15] [µg/mL],MIC [16] [µg/mL],MIC [17] [µg/mL],MIC [18] [µg/mL],Compound,% R (isolates resistant) ([1]; Enterococcus faecium (n = 104)) [%],% R (isolates resistant) [2] [%],MIC range [2] [µg/mL],also measured
,,,,,,,,,,,,,,,,CC(=O)NC[C@H]1CN(c2ccc(N3CCOCC3)c(F)c2)C(=O)O1 [Linezolid],3.8,1.9,1 to 8,"MIC range ([1]; Enterococcus faecium (n = 104)): 1 to 32 µg/mL; MIC range ([1]; Enterococcus faecium (n = 104), listed as linezolid): 1 to 32 µg/mL"
,,,,,,,,,,,,,,,,CN[C@H](CC(C)C)C(=O)N[C@H]1C(=O)N[C@@H](CC(N)=O)C(=O)N[C@H]2C(=O)N[C@H]3C(=O)N[C@H](C(=O)N[C@H](C(=O)O)c4cc(O)cc(O)c4-c4cc3ccc4O)[C@H](O)c3ccc(c(Cl)c3)Oc3cc2cc(c3O[C@@H]2O[C@H](CO)[C@@H](O)[C@H](O)[C@H]2O[C@H]2C[C@](C)(N)[C@H](O)[C@H](C)O2)Oc2ccc(cc2Cl)[C@H]1O [Vancomycin],47.1,0,0.5 to 2,"MIC50 ([1]; Enterococcus faecium): 1 µg/mL; MIC90 ([1]; Enterococcus faecium): > 32 µg/mL; MIC90 ([1]; Enterococcus faecium (n = 104)): >32 µg/mL; MIC ([1]; Enterococcus faecium, read-out: Mode (MIC)): > 32 µg/mL; MIC50 ([2]; Staphylococcus aureus): 1 µg/mL; MIC90 ([2]; Staphylococcus aureus): 1 µg/mL; MIC ([2]; Staphylococcus aureus, read-out: Mode (MIC)): 1 µg/mL"
8,4,8,4,4,8,8,4,16,16,8,32,4,8,4,8,IRRIIRRIRRIIRRIRRIIRR [SEQ ID NO: 4],,,,
0.5,0.5,4,8,1,16,0.5,2,8,4,2,4,0.5,1,0.5,0.5,VWRWVRRVWRWVRR [SEQ ID NO: 6],,,,
